Data on six compounds can be found in patent publication US20230123135A1 (priority 2020, published 2023).

As a reminder, the IC50 is the midpoint of a concentration-inhibition curve.

For series [1], the system named is COX-2. Format: cell-based, mouse.
Series [2] deals with Vero cells.
The test system of series [3] is NF-κB. Nature of the series: Western blot, NF-κB (p50, p65) protein in RAW264.7 macrophages. Format: cell-based, mouse. The note with it: 2.5-10 μM 30 min pretreatment, LPS 1 μg/mL 15 min.
In series [4] the test system is NF-κB transcriptional activity. Format: cell-based, mouse.
Series [5] concerns TNF-α. Format: cell-based, rat. To be noted: 24 h, LPS 100 ng/mL; read-out: IC50, secretion of TNF-α.
Series [6] has as its system TNF-α mRNA. Format: cell-based, mouse.
Series [7] concerns IL-6. Nature of the series: animal or person. In kind it is in vivo, Mus musculus (BALB/c). To be noted: for inhibition of IL-6 production (%) at 3 mg/kg: Mus musculus, read-out: inhibitory rate of IL-6 production (negative control as 100%).
Series [8] concerns iNOS mRNA. In kind it is cell-based, mouse.
Series [9] relates to human telomerase. The note with it: cited from earlier work.
Series [10] deals with IL-1β. Nature of the series: animal or person. The note with it: for IL-1 beta Mean AUC (baseline-adjusted): mouse, in vivo; for Inhibition rate of IL-1β production (%) at 3 mg/kg: Mus musculus, read-out: inhibitory rate of IL-1β production (negative control as 100%). Format: in vivo, Mus musculus (BALB/c).
Series [11] concerns PGE2 production. Format: cell-based, mouse.
Series [12] has as its system IL-1β. In kind it is cell-based, mouse.
In series [13] the test system is SARS-CoV-2. Nature of the series: microbe, parasite or virus in culture. To be noted: for IC50: read-out: IC50, inhibition of SARS-CoV-2 infection. In kind it is cell-based.
Series [14] relates to iNOS. Format: cell-based, mouse.
Series [15] concerns COX-2 mRNA. In kind it is cell-based, mouse.
In series [16] the test system is IL-1β mRNA. Format: cell-based, mouse.
In series [17] the test system is primary rat peritoneal macrophages.
Series [18] shares this test system. The source holds these as a separate data set.
In series [19] the test system is TNF-α. In kind it is cell-based, mouse.
For series [20], the system named is IL-6. In kind it is cell-based, rat.
For series [21] the following is noted: in vivo.
The test system of series [22] is NO production. In kind it is cell-based, mouse. To be noted: read-out: IC50 for inhibition of NO production.
Series [23] relates to IL-1β. In kind it is cell-based, rat.
For series [24], the system named is SARS-CoV-2 infection. Also on record: species or system person. The note with it: in vivo.
Series [25] deals with IFN-β mRNA. Format: cell-based, mouse.
Series [26] concerns TNF-α. Nature of the series: animal or person. In kind it is in vivo, Mus musculus (BALB/c). On the set-up: TNF-α production in BALF: unit not given here. To be noted: for inhibition of TNF-α production at 3 mg/kg: Mus musculus, read-out: inhibitory rate of TNF-α production (negative control as 100%).
Series [27] relates to IκB. Nature of the series: Western blot, IκB degradation in RAW264.7 macrophages. Format: cell-based, mouse. To be noted: 2.5-10 μM 30 min pretreatment, LPS 1 μg/mL 15 min.
A short description of series [28]: in vitro. To be noted: African green monkey.
The mark [29] stands for this setting: 3 μM, in the absence of significant cell death.
Where [30] appears, read: Severe acute respiratory syndrome coronavirus 2, Vero, 24 h.

“Also recorded” adds a separate entry of the source. Read-outs that look alike come from different tables or passages of the source.

sodium meta-arsenite [SMA]: in series [1], the COX-2 protein expression result was “slightly inhibited”. The same compound registered a CC50 in series [2] of 21.1 µM. The NF-κB protein level result in series [3] is reported as “markedly decreased”. In addition, the “LPS-induced SEAP expression (NF-κB transcriptional activity)” value in series [4] is listed as “inhibited LPS-induced SEAP expression significantly”. Besides, the half-inhibitory concentration (IC50) in series [5] is 2.3 µM; in [13], 4.25 µM; in series [18] (read-out: IC50 for cell viability, 24 h, LPS 100 ng/mL, MTT) it was 5.7 µM; in series [20] (24 h, LPS 100 ng/mL, read-out: IC50, secretion of IL-6), 0.5 µM; in series [22], roughly 2.87 µM; in series [23] (24 h, LPS 100 ng/mL, read-out: IC50, secretion of IL-1β), 0.8 µM. In series [6], the “mRNA level of TNF-α” value is given as “significantly decreased”. For the same compound, in [7] (mouse, in vivo), the “inhibitory rate of IL-6 production (negative control as 100%)” value turned out to be 60%. The “IL-6 Mean AUC (baseline-adjusted)” value in series [7] (mouse, in vivo, 1.03 mg/kg) stood at 165404.0 pg·h/mL; in [7] (mouse, in vivo, 1.54 mg/kg), 128034.8 pg·h/mL; in [7] (mouse, in vivo, 2.05 mg/kg), 78963.1 pg·h/mL. The “iNOS mRNA expression” value in [8] was “significantly inhibited”. The “inhibition of human telomerase” value in series [9] is given as “potent inhibitor”. The “IL-1 beta Mean AUC (baseline-adjusted)” value in series [10] (1.03 mg/kg) was determined as 4272.9 pg·h/mL; in series [10] (1.54 mg/kg), 3738.3 pg·h/mL; in [10] (2.05 mg/kg), 3045.8 pg·h/mL. Besides, the “inhibition of PGE2 production” value in series [11] was 20%. Besides, in [12], the IL-1β protein expression entry was “significantly inhibited”. For the same compound, the iNOS protein expression entry in series [14] is reported as “significantly inhibited”. In addition, in [15], the “COX-2 mRNA expression” value is on record as “not influenced”. For the same compound, the “expression of IL-1β mRNA” value in series [16] is “no effect”. In addition, the “cytotoxicity (CytoTox-GLO) compared with vehicle” value in series [17] (24 h, LPS 100 ng/mL) is “concentration-dependent increase in cytotoxicity”. For the same compound, in series [18] (24 h, LPS 100 ng/mL), the “cell viability (MTT) compared with vehicle” value is “concentration-dependent decrease in viability”. Further, in [19], the TNF-α protein expression entry was “significantly inhibited”. In addition, the “secretion of IL-6” value in series [20] (setting [29]) is given as “complete inhibition”. Further, the “time until fully metabolised and excreted from the body after taking it” value in series [21] came out at 72 h. In addition, in [23] (setting [29]), the “secretion of IL-1β” value was “complete inhibition”. The “symptoms of SARS-CoV-2 infection after taking SMA” value in series [24] was “effective in alleviating or treating the symptoms of SARS-CoV-2 infection; also recorded: Chest tightness and pain relieved; also recorded: Temporary relief of symptoms”. Also, in series [25], the “expression of IFN-β mRNA” value was “no effect”. Further, the “TNF-α production in BALF” value in series [26] (mouse, in vivo) came to 794. The “TNF-alpha Mean AUC (baseline-adjusted)” value was found to be 7984.4 pg·h/mL in series [26] (mouse, in vivo, 1.03 mg/kg); 6064.8 pg·h/mL in [26] (mouse, in vivo, 1.54 mg/kg); 4215.8 pg·h/mL in [26] (mouse, in vivo, 2.05 mg/kg). In addition, the IκB degradation entry in series [27] is reported as “markedly inhibited”.
As for `CCC(CC)COC(=O)[C@H](C)N[P@](=O)(OC[C@H]1O[C@@](C#N)(c2ccc3c(N)ncnn23)[C@H](O)[C@@H]1O)Oc1ccccc1` [remdesivir], the CC50 in [28] is greater than 50 µM. The IC50 in series [13] (setting [30]) worked out at 5.27 µM.
Take Triton-X [reference compound]: the “cell viability (MTT) compared with vehicle” value in series [18] is listed as “low cell viability”.
Regarding `C[C@@H]1CC[C@@]2(OC1)O[C@H]1[C@@H](O)[C@H]3[C@@H]4CC[C@H]5C[C@@H](O[C@@H]6O[C@H](CO)[C@H](O[C@@H]7O[C@H](CO)[C@@H](O)[C@H](O[C@@H]8OC[C@@H](O)[C@H](O)[C@H]8O)[C@H]7O[C@@H]7O[C@H](CO)[C@H](O)[C@H](O[C@@H]8O[C@H](CO)[C@@H](O)[C@H](O)[C@H]8O)[C@H]7O)[C@H](O)[C@H]6O)[C@H](O)C[C@]5(C)[C@H]4CC[C@]3(C)[C@H]1[C@@H]2C` [Digitonin, reference compound], in series [17], the “cytotoxicity (CytoTox-GLO) compared with vehicle” value is “high toxicity”.
`Cc1cccc(C)c1OCC(=O)N[C@@H](Cc1ccccc1)[C@@H](O)C[C@H](Cc1ccccc1)NC(=O)[C@H](C(C)C)N1CCCNC1=O` [lopinavir]: in series [28], the CC50 was greater than 50 µM. In addition, the “Selectivity index (SI), CC50/IC50” value in [13] was found to be 3.81. Further, the IC50 in series [13] (setting [30]) turned out to be 13.1 µM.
For the compound `C[C@@H]1C[C@H]2[C@@H]3CCC4=CC(=O)C=C[C@]4(C)[C@@]3(F)[C@@H](O)C[C@]2(C)[C@@]1(O)C(=O)CO` [Dexamethasone], the inhibition of IL-6 production (%) at 3 mg/kg in [7] (1 h) was 59%; in series [7] (2 h), 43%; in [7] (4 h), 59%; in [7] (6 h), 20%; in [7] (12 h), 16%; in series [7] (24 h) it was 51%. For the same compound, the “IL-6 Mean AUC (baseline-adjusted)” value in [7] (mouse, in vivo) worked out at 54684.9 pg·h/mL. Moreover, the Inhibition rate of IL-1β production (%) at 3 mg/kg in series [10] (4 h) worked out at 69%; in series [10] (6 h) it was 67%; in [10] (12 h), 77%. Further, in [10], the “IL-1 beta Mean AUC (baseline-adjusted)” value was found to be 2637.5 pg·h/mL. Moreover, the inhibition of TNF-α production at 3 mg/kg was 25% in series [26] (1 h); 28% in [26] (2 h); 33% in series [26] (4 h); 28% in [26] (6 h); 9% in [26] (12 h). In [26] (mouse, in vivo), the “TNF-alpha Mean AUC (baseline-adjusted)” value came to 2815.4 pg·h/mL.
